“Also recorded” adds a separate entry of the source.
Experiments:
4T1 tumor cells [1] = experiment: 4T1 mammary fat pad tumor growth and survival after 3 weekly doses; assay type: in vivo, BALB/c mice
Description: Highly aggressive 4T1 tumor cells were implanted into 4th mammary fat pad of BALB/c mice and treatment was started one week post-implantation and total 3 doses (one dose/week) were injected. […] Results are presented as mean±SD (3-5 mice in each group).
(§1) Murine 4T1 cells were originally isolated from a spontaneous mammary tumor in the BALB/c strain and have been reported to show characteristics of human triple-negative breast cancer (TNBC) subtype. We first implanted 50,000 4T1 tumor cells into mammary fat pad of syngeneic mice and started treatment one-week post-implantation. After 3 doses by injection (one dose/week), the treatment was terminated and mice were followed for tumor growth and survival. […] Second set of mice euthanized to examine metastatic colonization of tumor cells in the lungs 72h after the last injection.

4T1 tumor cells [2] = experiment: Metastatic outgrowth of disseminated 4T1 tumor cells, mice euthanized 72h after last injection; assay type: in vivo
Text: Mice were sacrificed 3 days after the last dose injection to check the metastatic colonization of luciferase expressing 4T1 tumor cells. […] Results are presented as mean±SD (3 mice in each group).
as §1

Structure (SMILES): CC(=O)O[C@H]1C(=O)[C@@]2(C)[C@H]([C@H](OC(=O)c3ccccc3)[C@]3(O)C[C@H](OC(=O)[C@H](O)[C@@H](NC(=O)c4ccccc4)c4ccccc4)C(C)=C1C3(C)C)[C@]1(OC(C)=O)CO[C@@H]1C[C@@H]2O [naked paclitaxel, paclitaxel]
- survival compared with tumor bearing mice that did not have any treatment (4T1 tumor cells [1]; 3 doses, one dose/week): longer
- tumor size, difference between groups (4T1 tumor cells [1]; up to 42 days, FIG. 1b): no significant difference
- metastatic colonization of tumor cells in the lungs (ex vivo lung imaging) (4T1 tumor cells [2]; 72h after the last injection, 3 mice in each group, FIG. 2d-e): micro metastatic colonization; also recorded: only micro metastases
- tumor weight (4T1 tumor cells [2]; IP-injection, 72h after the last injection, FIG. 2a-b): decreased the tumor weight but this decrease was not significant; also recorded: decrease the tumor weight
- signal intensity of luciferase in lungs, difference between groups (4T1 tumor cells [2]; ex vivo lung imaging, FIG. 2d-e): not significantly different
